Measurements as given in patent publication US7473760B2, “Cyclic peptide compositions for treatment of sexual dysfunction” (Palatin Technologies, Inc., priority 1999, dated 2009).

Experiments:
male Sprague-Dawley rats = assay: Induction of penile erections in male rats; assay type: in vivo, rat; details: 3 μg/kg intravenous; male rats observed 30 minutes
Experimental: Male Sprague-Dawley rats weighing 200-250 g were kept on a 12 hour on/off light cycle with food and water ad libitum. All behavioral studies were performed between 10 a.m. and 5 p.m. Groups of 6 rats were treated with peptides at a variety of doses, primarily 3 μg/kg, via intravenous administration. Immediately after administration, rats were placed into individual polystyrene cages (27 cm long, 16 cm wide, and 25 cm high) for behavioral observation. […] Using the above procedure, the mean number of penile erections for each rat on intravenous administration of 3 μg/kg was determined as shown on Table 2.

[1] = system: men with psychogenic erectile dysfunction; details: subcutaneous, 0.025 to 0.157 mg/kg, cited from earlier work
hMC4-R [2] = target: T1, hMC4-R (Homo sapiens, UniProt P32245); assay: Stimulation of intracellular cAMP production in transfected HEK-293 cells expressing hMC4-R; assay type: cell-based
T1 construct: expressed in transfected cells; whole cells for cAMP
Experimental: Functional assays to determine agonist or antagonist status of a cyclic peptide of the invention may be conducted by any means known in the art. In one method, a cAMP assay is performed. Human MC4-R cells are grown to confluence in 96 well plates (plating approximately 250,000 cells per well). Identical sets of cells in triplicate are treated with 0.2 mM isobutylmethylxanthine (IBMX) and the chosen concentration of the peptide or alternatively the peptide in the presence of 20 nM NDP-MSH. Cells similarly treated but with only 20 nM NDP-MSH serve as positive controls in a volume of 200 μL. A buffer blank, as a negative control, is also included. Incubation is for one hour at 37° C. after which the cells are lysed by the addition of 50 μL of a cell lysis buffer. Total cAMP accumulated in 250 μL of this solution is quantitated using a commercially available low pH cAMP assay kit (Amersham BioSciences) by the procedure specified by the kit supplier. Any peptide showing cAMP accumulation in the same range as or higher than the positive control (buffer blank in the presence of α-MSH) is considered to be an agonist. A peptide showing accumulation in the same range as the negative control (buffer blank in the absence of α-MSH) is ineffective at the test concentration if the result is similar to the positive control where α-MSH is also present in the assay. A peptide showing accumulation in the same range as the negative control is considered to be an antagonist if there is inhibition in cAMP when α-MSH is present in the assay. Similar methods may be employed for MC3-R, using MC3-R cells.

hMC3-R = target: T2, hMC3-R (Homo sapiens, UniProt P41968); assay: Competitive inhibition binding assay with 125I-NDP-MSH, MC3-R; details: 1 μM peptide, HEK 293 human MC3, read-out: Percent Inhibition At 1 μM concentration MC3-R
T2 construct: expressed in transfected cells; host or cells: HEK 293 cells (membranes)
Experimental: Each assay was conducted in triplicate.
(§1) B16-F1 mouse melanoma cells were used as the source of MC1 receptors; HEK 293 cells, transfected with human melanocortin receptor sequences, were used as the source of MC3, MC4 and MC5 receptors.

hMC5-R = target: T3, hMC5-R (Homo sapiens, UniProt P33032); assay: Competitive inhibition binding assay with 125I-NDP-MSH, MC5-R; details: 1 μM peptide, HEK 293 human MC5, read-out: Percent Inhibition At 1 μM concentration MC5-R
T3 construct: expressed in transfected cells; host or cells: HEK 293 cells (membranes)
Experimental: Each assay was conducted in triplicate.
as §1

[3] = target: MC1-R (B16-F1 mouse melanoma cells) (Mus musculus, UniProt Q01727); assay: Competitive inhibition binding assay with 125I-NDP-MSH, MC1-R; details: 1 μM peptide, B16-F1 mouse melanoma membranes, read-out: Percent Inhibition At 1 μM concentration MC1-R
Experimental: Each assay was conducted in triplicate.
as §1

hMC4-R [4] = target: T1, hMC4-R; assay: Competitive inhibition binding assay with 125I-NDP-MSH, MC4-R; details: 1 μM peptide, HEK 293 human MC4, read-out: Percent Inhibition At 1 μM concentration MC4-R
Experimental: Each assay was conducted in triplicate.
as §1

T1 sequence (P32245 whole entry): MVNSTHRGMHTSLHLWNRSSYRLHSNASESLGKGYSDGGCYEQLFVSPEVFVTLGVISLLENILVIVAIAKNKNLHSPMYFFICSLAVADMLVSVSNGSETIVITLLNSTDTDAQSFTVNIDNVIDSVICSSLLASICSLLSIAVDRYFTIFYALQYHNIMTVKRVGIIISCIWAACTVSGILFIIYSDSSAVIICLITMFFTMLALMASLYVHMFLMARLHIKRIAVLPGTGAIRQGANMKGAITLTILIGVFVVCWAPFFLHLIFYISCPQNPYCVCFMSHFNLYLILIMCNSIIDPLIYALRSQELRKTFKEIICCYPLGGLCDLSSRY
T2 sequence (P41968 whole entry): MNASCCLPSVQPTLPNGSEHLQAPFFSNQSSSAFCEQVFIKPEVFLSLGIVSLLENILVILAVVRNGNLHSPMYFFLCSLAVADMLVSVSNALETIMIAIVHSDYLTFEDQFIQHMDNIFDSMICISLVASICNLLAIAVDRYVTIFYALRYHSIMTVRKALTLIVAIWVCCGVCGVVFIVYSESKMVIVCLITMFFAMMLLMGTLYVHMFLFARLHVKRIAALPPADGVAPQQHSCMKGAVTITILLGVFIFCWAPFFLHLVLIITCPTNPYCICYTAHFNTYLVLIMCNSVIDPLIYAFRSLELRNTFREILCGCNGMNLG
Sequence of MC1-R (B16-F1 mouse melanoma cells) (Q01727 whole entry): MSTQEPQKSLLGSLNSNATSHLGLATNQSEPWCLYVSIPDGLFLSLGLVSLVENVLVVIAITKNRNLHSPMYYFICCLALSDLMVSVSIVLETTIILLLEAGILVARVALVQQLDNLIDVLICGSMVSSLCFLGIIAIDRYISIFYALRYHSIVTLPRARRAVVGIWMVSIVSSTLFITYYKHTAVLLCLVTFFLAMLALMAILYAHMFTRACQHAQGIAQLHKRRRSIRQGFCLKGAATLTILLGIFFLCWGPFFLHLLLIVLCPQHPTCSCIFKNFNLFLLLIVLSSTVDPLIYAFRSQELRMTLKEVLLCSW
T3 sequence (P33032 whole entry): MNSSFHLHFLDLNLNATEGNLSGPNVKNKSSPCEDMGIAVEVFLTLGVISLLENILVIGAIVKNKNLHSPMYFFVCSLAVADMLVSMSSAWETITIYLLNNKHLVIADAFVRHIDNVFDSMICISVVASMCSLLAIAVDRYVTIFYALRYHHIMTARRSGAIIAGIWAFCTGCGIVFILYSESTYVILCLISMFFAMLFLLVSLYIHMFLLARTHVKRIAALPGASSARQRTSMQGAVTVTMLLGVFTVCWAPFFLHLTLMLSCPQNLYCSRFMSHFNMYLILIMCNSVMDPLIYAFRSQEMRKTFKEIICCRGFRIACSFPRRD

| Compound | Mean PE/Rat (mean number of penile erections for each rat) (male Sprague-Dawley rats) | other results |
| --- | --- | --- |
| Ac-Nle-cyclo(-Asp-Phe-D-Phe-Arg-Trp-Lys)-OH | 0.33 | – |
| Ac-Nle-cyclo(-Asp-D-His-D-Phe-Arg-Trp-Lys)-OH | 0.33 | – |
| Ac-Nle-cyclo(-Asp-Tyr-D-Phe-Arg-Trp-Lys)-OH | 0.67 | – |
| Ac-Nle-cyclo(-Asp-His-D-Phe-Arg-Nal 1-Lys)-OH | 0.33 | – |
| Ac-Nle-cyclo(-Asp-Trp-D-Phe-Arg-Trp-Lys)-OH | 0.5 | – |
| Ahx-cyclo(-Asp-His-D-Phe-Arg-Trp-Lys)-OH | 0.33 | – |
| Melanotan-II | – | transient side effects [1]: nausea, stretching and yawning, and decreased appetite; mean duration of tip rigidity greater than 80% ([1]; placebo 3.0 minutes, p=0.0045): 38 min |
| CCCC[C@H](NC(C)=O)C(=O)N[C@H]1CC(=O)NCCCC[C@@H](C(=O)O)NC(=O)[C@H](Cc2c[nH]c3ccccc23)NC(=O)[C@H](CCCCN)NC(=O)[C@@H](Cc2ccccc2)NC(=O)[C@H](Cc2c[nH]cn2)NC1=O [Ac-Nle-cyclo(-Asp-His-D-Phe-Lys-Trp-Lys)-OH] | 1.33 | Functional Activity at MC4-R (hMC4-R [2]): Agonist; inhibition at 1 µM (hMC3-R): 8%; inhibition at 1 µM (hMC5-R): 17%; inhibition at 1 µM [3]: 86%; inhibition at 1 µM (hMC4-R [4]): 46% |
| Ac-Nle-cyclo(-Asp-His-D-Phe-Arg-D-Trp-Lys)-OH | 0.83 | – |
| Ac-Nle-cyclo(-Asp-His-D-Phe(4-Cl)-Arg-Trp-Lys)-OH | 0.33 | – |
| Ac-Nle-cyclo(-Asp-His-Phe-Arg-Trp-Lys)-OH | – | Functional Activity at MC4-R (hMC4-R [2]): Inactive |
| cyclo(-Succ-His-D-Phe-Arg-Trp-Lys)-OH (FRWK; cyclic succinyl, His, D-residue prefix; printed: Phe-Arg-Trp-Lys) | – | Functional Activity at MC4-R (hMC4-R [2]): Agonist |
